Reference: patent publication US9346782B2, “Alkyl linked quinolinyl modulators of RORγt” (Janssen Pharmaceutica NV, priority 2013, dated 2016)
Where a name gives a salt, the structure may show the parent alone.

What was measured:
human RORγt LBD = human RORγt LBD (Homo sapiens (Human), UniProt P51449); experiment: RORγt Reporter Assay; assay type: cell-based; settings: for inhibition at 6 µM: HEK-293T, read-out: RORγt reporter Assay, % inhibition @ 6 μM, HEK293T cells, 6 μM
Text: A reporter assay was used to test functional activity of RORγt modulatory compounds on transcriptional activation driven by the RORγt LBD. Cells used in the assay were co-transfected with two constructs. The first construct, pBIND-RORγt LBD, contained the wild type human RORγt LBD fused to the DNA binding domain of the GAL4 protein. The second construct, pGL4.31 (Promega Cat no. C935A), contained multiple GAL4 responsive DNA elements upstream of firefly luciferase. […] The mutant construct was called pBIND-RORγt-AF2.
The pBIND vector contains the GAL4 DNA Binding Domain (GAL4 DBD) and the renilla luciferase gene under control of the SV40 promoter. Renilla luciferase expression serves as a control for transfection efficiency and cell viability.
The reporter assay was performed by transiently transfecting HEK293T cells with 5 μg of pBIND-RORγt LBD or pBIND-RORγt LBD-AF2 and 5 μg pGL4.31 (Promega Cat no. C935A) using Fugene 6 (Invitrogen Cat no. E2691) at a 1:6 ratio of DNA:Fugene 6 in a T-75 flask in which cells were at least 80% confluent. Twenty four hours after bulk transfection, cells were plated into 96-well plates at 50,000 cells/well in phenol-red free DMEM containing 5% Lipid Reduced FCS and Pen/Strep. Six hours after plating, cells were treated with compounds for 24 hours. Media was removed and cells were lysed with 50 μL 1× Glo Lysis Buffer (Promega). Dual Glo Luciferase Reagent (50 μL/well) was then added and firefly luciferase luminescence was read on an Envision after a ten minute incubation. Finally, Stop and Glo reagent (50 μL/well) was added and renilla luciferase luminescence was read on an Envision after a ten minute incubation. To calculate the effect of compounds on RORγt activity, the ratio of firefly to renilla luciferase was determined and plotted against compound concentration. Agonist compounds increase RORγt-driven luciferase expression, and antagonist or inverse agonist compounds decrease luciferase expression.

[1] = tested on: IL-17 production by CD4 T cells; experiment: Human Th17 Assay; assay type: cell-based; settings: 3 days
Text: The human Th17 assay tests the effect of RORγt modulatory compounds on IL-17 production by CD4 T cells under conditions which favor Th17 differentiation. Total CD4^+ T cells were isolated from the peripheral blood mononuclear cells (PBMC) of healthy donors using a CD4^+ T cell isolation kit II, following the manufacturer's instructions (Miltenyi Biotec). Cells were resuspended in a medium of RPMI-1640 supplemented with 10% fetal bovine serum, penicillin, streptomycin, glutamate, and β-mercaptoethanol and were added to 96-well plates at 1.5×10^5 per 100 μL per well. 50 μL of compound at titrated concentrations in DMSO were added into each well at final DMSO concentration at 0.2%. Cells were incubated for 1 hour, then 50 μL of Th17 cell differentiation medium was added to each well. The final concentrations of antibodies and cytokines (R&D Systems) in differentiation medium were: 3×10^6/mL anti-CD3/CD28 beads (prepared using human T cell activation/expansion kit, Miltenyi Biotec), 10 μg/mL anti-IL4, 10 μg/mL anti-IFNγ, 10 ng/mL IL1β, 10 ng/mL IL23, 50 ng/mL IL6, 3 ng/mL TGFβ and 20 U/mL IL2. Cells were cultured at 37° C. and 5% CO2 for 3 days. Supernatants were collected and the accumulated IL-17 in culture was measured by using MULTI-SPOT® Cytokine Plate following manufacture's instruction (Meso Scale Discovery). The plate was read using Sector Imager 6000, and IL-17 concentration was extrapolated from the standard curve. The IC50s were determined by GraphPad.

Sequence of human RORγt LBD (P51449 258-518): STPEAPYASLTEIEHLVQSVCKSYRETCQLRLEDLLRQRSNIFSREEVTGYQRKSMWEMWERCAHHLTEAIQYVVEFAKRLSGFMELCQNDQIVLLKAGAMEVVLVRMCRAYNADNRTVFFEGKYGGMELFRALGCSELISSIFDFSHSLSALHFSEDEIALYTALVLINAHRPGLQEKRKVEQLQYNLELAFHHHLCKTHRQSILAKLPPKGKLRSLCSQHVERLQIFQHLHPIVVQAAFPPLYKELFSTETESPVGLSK

IC50 (human RORγt LBD; HEK293T cells) [µM]	inhibition at 6 µM (human RORγt LBD) [%]	SMILES	further results
		CCC(O)(c1ccc2nc(Cl)c(-c3ccccc3)c(Cl)c2c1)c1cc(C)no1 (stereo not shown) [Example 2, 1-(2,4-Dichloro-3-phenylquinolin-6-yl)-1-(3-methylisoxazol-5-yl)propan-1-ol.TFA]	IC50 ([1]; Homo sapiens, 72 h): ~6 µM
0.36	97	C#CC(O)(c1ccc2nc(OC)c(Cc3ccc(C(F)(F)F)cc3)c(Cl)c2c1)C1CN(C(C)=O)C1 (single isomer, unassigned) [Example 7b, 1-(3-(1-(4-chloro-2-methoxy-3-(4-(trifluoromethyl)benzyl)quinolin-6-yl)-1-hydroxyprop-2-yn-1-yl)azetidin-1-yl)ethanone]	
0.066	84	C#CC(O)(c1ccc2nc(OC)c(Cc3ccc(C(F)(F)F)cc3)c(Cl)c2c1)c1cnc(C)n1C (single isomer, unassigned) [Example 14b, 1-(4-Chloro-2-methoxy-3-(4-(trifluoromethyl)benzyl)quinolin-6-yl)-1-(1,2-dimethyl-1H-imidazol-5-yl)prop-2-yn-1-ol]	IC50 ([1]; Homo sapiens, CD4+ T, 72 h): 0.19 µM
0.2	101	COc1nc2ccc(C(C)(O)c3ccc(C)nc3C)cc2c(Cl)c1Cc1ccc(C(F)(F)F)cc1 (single isomer, unassigned) [Example 13b, 1-(4-Chloro-2-methoxy-3-(4-(trifluoromethyl)benzyl)quinolin-6-yl)-1-(2,6-dimethylpyridin-3-yl)ethanol]	IC50 [1]: 0.17 µM
0.046		COc1nc2ccc(C(C)(O)c3ccc(C)nc3C)cc2c(Cl)c1Cc1ccc(C(F)(F)F)cc1 (single isomer, unassigned) [Example 13c, 1-(4-Chloro-2-methoxy-3-(4-(trifluoromethyl)benzyl)quinolin-6-yl)-1-(2,6-dimethylpyridin-3-yl)ethanol]	RORγt reporter Assay, % inhibition @ 6 μM (human RORγt LBD; HEK293T cells, 6 μM): 100%; IC50 [1]: 0.06 µM
		CCCCC(O)(c1ccc2nc(Cl)c(-c3ccccc3)c(Cl)c2c1)c1cc(C)no1 (stereo not shown) [Example 1, 1-(2,4-Dichloro-3-phenylquinolin-6-yl)-1-(3-methylisoxazol-5-yl)pentan-1-ol.TFA]	IC50 ([1]; Homo sapiens, 72 h): ~3 µM
0.5	102	COc1nc2ccc(C(C)(O)c3cnc(C)n3C)cc2c(Cl)c1Cc1ccc(C(F)(F)F)cc1 (single isomer, unassigned) [Example 12b, 1-(4-Chloro-2-methoxy-3-(4-(trifluoromethyl)benzyl)quinolin-6-yl)-1-(1,2-dimethyl-1H-imidazol-5-yl)ethanol]	IC50 [1]: 2.1 µM
0.5	98	CCC(O)(c1ccc2nc(OC)c(Cc3ccc(C(F)(F)F)cc3)c(Cl)c2c1)C1CN(C(=O)OC(C)(C)C)C1 (stereo not shown) [Example 17, tert-Butyl-3-(1-(4-chloro-2-methoxy-3-(4-(trifluoromethyl)benzyl)quinolin-6-yl)-1-hydroxypropyl)azetidine-1-carboxylate]	
0.21	81	C#CC(O)(c1ccc2nc(OC)c(Cc3ccc(C(F)(F)F)cc3)c(Cl)c2c1)c1cnc(C)n1C (stereo not shown) [Example 14a, 1-(4-Chloro-2-methoxy-3-(4-(trifluoromethyl)benzyl)quinolin-6-yl)-1-(1,2-dimethyl-1H-imidazol-5-yl)prop-2-yn-1-ol]	
0.23	95	C#CC(O)(c1ccc2nc(OC)c(Cc3ccc(C(F)(F)F)cc3)c(Cl)c2c1)C1CN(C(C)=O)C1 (stereo not shown) [Example 7a, 1-(3-(1-(4-Chloro-2-methoxy-3-(4-(trifluoromethyl)benzyl)quinolin-6-yl)-1-hydroxyprop-2-yn-1-yl)azetidin-1-yl)ethanone]	
1.3	89	COc1nc2ccc(C(C)(O)c3cncn3C)cc2c(Cl)c1Cc1ccc(C(F)(F)F)cc1 (single isomer, unassigned) [Example 9b, 1-(4-Chloro-2-methoxy-3-(4-(trifluoromethyl)benzyl)quinolin-6-yl)-1-(1-methyl-1H-imidazol-5-yl)ethanol]	
0.37	99	COc1nc2ccc(C(C)(O)c3cnc(C)n3C)cc2c(Cl)c1Cc1ccc(C(F)(F)F)cc1 (stereo not shown) [Example 12a, 1-(4-Chloro-2-methoxy-3-(4-(trifluoromethyl)benzyl)quinolin-6-yl)-1-(1,2-dimethyl-1H-imidazol-5-yl)ethanol]	
0.11	102	COc1nc2ccc(C(C)(O)c3cnnn3C)cc2c(Cl)c1Cc1ccc(C(F)(F)F)cc1 (stereo not shown) [Example 11a, 1-(4-Chloro-2-methoxy-3-(4-(trifluoromethyl)benzyl)quinolin-6-yl)-1-(1-methyl-1H-1,2,3-triazol-5-yl)ethanol]	
0.052	103	COc1nc2ccc(C(C)(O)c3ccc(C)nc3C)cc2c(Cl)c1Cc1ccc(C(F)(F)F)cc1 (stereo not shown) [Example 13a, 1-(4-Chloro-2-methoxy-3-(4-(trifluoromethyl)benzyl)quinolin-6-yl)-1-(2,6-dimethylpyridin-3-yl)ethanol]	
0.28	98	COc1nc2ccc(C(C)(O)c3cncn3C)cc2c(Cl)c1Cc1ccc(C(F)(F)F)cc1 (stereo not shown) [Example 9a, 1-(4-Chloro-2-methoxy-3-(4-(trifluoromethyl)benzyl)quinolin-6-yl)-1-(1-methyl-1H-imidazol-5-yl)ethanol]	

SMILES	IC50 (human RORγt LBD; HEK293T cells) [µM]	inhibition at 6 µM (human RORγt LBD) [%]	further results
Cn1cncc1C(O)(c1ccc2nc(Cl)c(-c3ccccc3)c(Cl)c2c1)C1CC1 (stereo not shown) [Example 3, Cyclopropyl(2,4-dichloro-3-phenylquinolin-6-yl)(1-methyl-1H-imidazol-5-yl)methanol]	> 6	56	
COc1nc2ccc(C(C)(O)c3oc(C)nc3C)cc2c(Cl)c1Cc1ccc(C(F)(F)F)cc1 (single isomer, unassigned) [Example 10a, 1-(4-Chloro-2-methoxy-3-(4-(trifluoromethyl)benzyl)quinolin-6-yl)-1-(2,4-dimethyloxazol-5-yl)ethanol]	0.25	101	
C#CC(O)(c1ccc2nc(OC)c(Cc3ccc(C(F)(F)F)cc3)c(Cl)c2c1)C1CN(C(=O)OC(C)(C)C)C1 (stereo not shown) [Example 8, tert-Butyl-3-(1-(4-chloro-2-methoxy-3-(4-(trifluoromethyl)benzyl)quinolin-6-yl)-1-hydroxyprop-2-yn-1-yl)azetidine-1-carboxylate]	4	71	
CCCCC(O)(c1ccc2nc(Cl)c(-c3ccccc3)c(Cl)c2c1)c1cncn1C (stereo not shown) [Example 4, 1-(2,4-Dichloro-3-phenylquinolin-6-yl)-1-(1-methyl-1H-imidazol-5-yl)pentan-1-ol.TFA]	1.5	114	
CC(C)C(O)(c1ccc2nc(Cl)c(-c3ccccc3)c(Cl)c2c1)c1cncn1C (stereo not shown) [Example 5, 1-(2,4-Dichloro-3-phenylquinolin-6-yl)-2-methyl-1-(1-methyl-1H-imidazol-5-yl)propan-1-ol]	1.3	118	
Cc1nc(C)c(C(O)(c2ccc3nc(Cl)c(-c4ccccc4)c(Cl)c3c2)C(C)C)s1 (stereo not shown) [Example 15, 1-(2,4-Dichloro-3-phenylquinolin-6-yl)-1-(2,4-dimethylthiazol-5-yl)-2-methylpropan-1-ol]	~0.5	99	
CCC(O)(c1ccc2nc(OC)c(Cc3ccc(S(C)(=O)=O)cc3)c(Cl)c2c1)c1cncn1C (stereo not shown) [Example 6, 1-(4-Chloro-2-methoxy-3-(4-(methylsulfonyl)benzyl)quinolin-6-yl)-1-(1-methyl-1H-imidazol-5-yl)propan-1-ol]	1.7	76	
